Reference: a melting point compilation (Tetko et al.; mined from patent text by program, amines drawn as free bases though some values may be those of a salt)
Residues, ends and D or L forms follow the SMILES beside them. *: point of attachment. Cbz = O=C(OCc1ccccc1)*

SMILES	melting point [°C]
Cc1cc2[nH]c3ncccc3c(=O)n2n1	> 300
CCc1noc(-c2cn(-c3cccc(OC4CCCC4)c3)cn2)n1	132
CN(C)Cc1ccc(C=CC(=O)N2CCc3c([nH]c4ccccc34)C2c2ccc3c(c2)CCO3)cn1 (stereo not given)	163
CC1C[C@@H]2NC[C@@H](NC(=O)OC(C)(C)C)[C@@H]2O1 (relative stereo)	69 to 72
CN(C)c1ccc(NC(=O)N(C[C@H]2CCC[C@H](CN(C(=O)Nc3ccc(N(C)C)cc3)C3CCCCCC3)C2)C2CCCCCC2)cc1 (relative stereo)	109 to 114
CC(=O)c1ccc(OC2CCN(C(=O)OC(C)(C)C)CC2)cc1F	72 to 73
Nc1c([N+](=O)[O-])nc(Cl)c2nncn12	220
COC(=O)Cc1cc(OC)ccc1C(C)=O	74 to 76
Cc1cc(-c2cn(-c3cccc(OCCn4ccnc4)c3)c3ncnc(N)c23)cc(C)c1O	100
O=C1CCc2ccc(O)cc2O1	133 to 136
COc1ccc(-c2cccs2)cc1	111
CCc1cc(Oc2ccc([C@H](O)[C@@H](Cc3cccc(OC(F)(F)C(F)F)c3)NC(=O)c3cccc4c3C=CCCC4)cc2)ccc1Cl (racemic)	116 to 117
COC(=O)CCc1oc(-n2ccnc2S(C)(=O)=O)nc1-c1ccc(Cl)cc1	112 to 113
Cc1c(C)c2cc(CCN3CCN(c4n[nH]c5ccccc45)CC3)ccc2[nH]c1=O	266 to 268
CC(C)(C)OC(=O)Nc1cccc(-c2nc(=O)o[nH]2)c1	193
COCCCCc1cccc(C2(c3ccc(OC(F)F)cc3)N=C(N)N(C)C2=O)c1 (stereo not given)	36 to 39
CCOC(=O)c1cc(O)ccc1O	81 to 82
CC(C)(Oc1ccc(Cl)cc1)C(=O)N1[C@@H](C(=O)O)C(C)(C)S[C@H]1c1ccccc1	177 to 181
CN(C)C(=O)COc1ccc2c(c1)C[C@@H](NC[C@H](O)c1ccc(O)c(CO)c1)CC2	175 to 176
Nc1cc([N+](=O)[O-])c(N)cc1Cl	157
Cc1[nH]c2ccc(CCN(CC(C)C)CC(C)C)cc2c1C(=O)OCc1ccccc1	134 to 135
CC(=O)Nc1cc(Oc2ccc3c(C(=O)Nc4ccc(CN5CCNCC5)c(C(F)(F)F)c4)cccc3c2)ncn1	194 to 197
N#Cc1ccc2c(c1)Sc1ccccc1O2	215
CCOC(=O)c1c(NC(C)=O)cccc1C(C)=O	88
CN(C)C=C1C(=O)N(c2cccc(C#N)c2)c2ccccc21	140 to 143
COc1cccc(-c2cccc(OC3SCC(O)C(O)C3O)c2)n1 (stereo not given)	206
NC(=O)N(O)Cc1ccc(CCCCCC(F)(F)F)s1	94

SMILES	melting point [°C]
CC(C)(C)OC(=O)N1C[C@@H]2[C@H](C1)C(F)(F)CCC2(c1ccccc1)c1ccccc1 (racemic)	162
CCOC(=O)c1cc(C#N)cc(C)n1	50
CCC1(C(NC(=O)c2ccc(Cl)cc2)NC(=NC#N)Nc2cccnc2)COCOC1 (stereo not given)	194 to 195
CC(=O)c1ccc2c(c1)OC(C(N)=O)CO2 (stereo not given)	212
COC(C(=O)O)c1c(Cl)cccc1Cl (stereo not given)	95 to 96
COC(=O)c1ccc(/C=C/c2nc(-c3ccc4ccccc4c3)oc2C)cc1	216 to 217
C=CC1CCC2(C)C(CCC3C4CCC(=O)C4(C)CCC32)C1 (stereo not given)	100 to 102
Clc1cccc(Nc2ncnc3[nH]c(CN4CCOCC4)cc23)c1	244 to 246
CCOC(=O)Nc1cc(N(C)C)nc2nc(=O)on12	230 to 240
CCOc1nc2ccnn2c2ncccc12	162
CN(C)c1ccc(NC(=O)N(C[C@@H]2CCC[C@H](CN(C(=O)Nc3ccc(N(C)C)cc3)C3CCCCCCC3)C2)C2CCCCCCC2)cc1	147 to 149
N#Cc1cccc(C2=Nc3ccc(-c4ccc(-c5ccccc5)cc4)cc3NC(=O)C2)c1	251 to 253
COc1ccc(OCC(O)CNCCNc2c(C)c(=O)n(C)c(=O)n2C)cc1 (stereo not given)	115 to 117
O=C(CO)c1cc(O)c(O)c([N+](=O)[O-])c1	208 to 210
Cc1cc(C(=O)Nc2ccn3cc(-c4ccccc4)nc3n2)ccn1	255 to 257
C#CCOC(=O)c1ccc(O)c(O)c1	127 to 129
CNC(=O)c1ccc2[nH]cc(C3=CCN(C)CC3)c2c1	125 to 135
CCc1nc2c(N)nc3ccccc3c2n1CC1(O)CCOCC1	> 250
CC(/C=C/c1sccc1-c1cc2c(cc1C)C(C)(C)CCC2(C)C)=C\C(=O)O	208 to 209
Nc1ncnc2c1c(-c1ccccc1)cn2-c1cccc(O)c1	227 to 228
COc1cc(Cl)ccc1NC(=O)C1CCCn2c1nc(-c1ccncn1)cc2=O (stereo not given)	251 to 253
COc1ccc(Cl)cc1C1(F)C(=O)Nc2cc(I)ccc21 (stereo not given)	205 to 210
CN(C)C(=O)c1cc(OCc2ccccc2)c2nc(C(F)(F)F)n(C)c2c1	144 to 146
N#CC1c2ccccc2C(Nc2ccc(Cl)cc2)=NN1C(=O)c1ccccc1 (stereo not given)	201 to 202
O=C1Cc2cc(NC(=O)C(=O)N3CCC(Oc4ccc(F)cc4)CC3)ccc2N1	147 to 149
COc1ccc(-c2noc3c2CCC(C(=O)O)CC3)cc1 (stereo not given)	147 to 148
O=C1c2cc(O)ccc2CCN1Cc1cccnc1	136 to 137

Other lines, results leading:

melting point [°C]	SMILES
241	CCOC(=O)COc1ccc(OCC)cc1C(Nc1ccc(C(=N)NC(=O)OC(C)(C)C)cc1)C(=O)OCC (racemic)
144 to 146	COC(=O)c1ccc(-c2nc3c(OC(C)=O)cccc3s2)cc1
124 to 126	Cc1nccn1Cc1nc2ccccc2n1-c1ccccc1
141 to 142	O=[N+]([O-])c1ccc(C=Cc2nccn2Cc2ccccn2)o1
114 to 116	Cc1c(C)c2c(c(C)c1OC(=O)c1ccccc1)SC(CCCOC(=O)c1ccccc1)O2 (stereo not given)
162 to 164	O=C1CCC(C(=O)O)(c2ccc(Cl)cc2)CC1
199	CNC(=O)c1cc(-c2ccc(OC)cc2)nn(Cc2ccc([N+](=O)[O-])cc2)c1=O
243	Cc1c(C(=O)Nc2ccc(N3CCC(N4CCOCC4)CC3)c(C#N)c2)cnn1-c1ccc(F)c(F)c1
184 to 186	O=C(O)Cc1ccc2c(c1)Cc1ccccc1-2
175 to 177	O=C(O)COc1ccc2c(c1)CCc1sc(S(=O)(=O)CCC(c3ccccc3)c3ccccc3)nc1-2
69 to 70	CC(=O)c1cncn1C1c2ccccc2CC1(C)C (stereo not given)
178 to 180	O=C(O)c1cc2cc(F)c(C(F)(F)F)cc2[nH]1
92.5 to 94	C=CCc1ccc(OCCC(C)C)c2c(=O)cc(-c3nnnn3Cc3ccccc3)oc12
190 to 191	CC(C)(C)OC(=O)c1n[nH]c2nc(N3CCNCC3)ccc12
308 to 310	CNC(=O)c1c(NC(=O)CBr)c(OC)c(C(=O)NC)c(NC(=O)CBr)c1OC
304 to 306	O=C1CC(c2ccccc2O)=Nc2ccc(N3CCCC3)cc21
72 to 74	CS(=O)(=O)OC[C@@H]1CCC(=O)N1
121 to 124	COC(=O)c1cc2sccc2nc1C(=O)OC
256 to 257	Nc1cc(Oc2ccc3c(C(=O)Nc4ccc(F)c(C5CC5)c4)cccc3c2)ncn1
110	CNC(=NCCS(=O)Cc1nccs1)NC#N (stereo not given)
158 to 159	COc1cc(OCc2cn(-c3ccc(C(F)(F)F)cn3)nc2C)ccc1CCC(=O)O
203 to 204	CN1C(=O)C(C(=O)NCC2CCC(C(=O)O)CC2)S(=O)(=O)c2ccccc21 (stereo not given)
151 to 154	COc1ccc(-n2nc(CCC(=O)N(C)O)cc2-c2ccc(F)cc2)cc1

melting point [°C]	SMILES
131 to 132	CCN(c1nc(C)cc(-c2ccccc2Cl)n1)c1c(Br)cc(N(C)C)cc1OC
100 to 101	CCOC(=O)CCCOc1ccc(NC(=O)c2ccc(C(C)(C)C)cc2)cc1
144 to 145	Nc1c2c(nc3cccc(Cl)c13)CCCC2
175 to 177	COc1ccc(C(=O)Nc2ccccc2)cc1NCc1cc(F)cc(F)c1
183	COc1ncnc2c(NC3OC(CO)C(O)C3O)ncnc12 (stereo not given)
90 to 91	OC(=S)CCc1cccc(Br)c1
57.4 to 59.9	Cc1ccc(-c2n[nH]c3c2CCCC3)cc1
99 to 101	O=C(O)COc1cccc(C(O)C(c2ccccc2)C2SCCCS2)c1 (stereo not given)
103 to 106	COC(=O)C(C)NC(=O)C1CCCN1C(=O)CNC(=O)OCc1ccccc1 (stereo not drawn) (Cbz-Gly-Pro-Ala-OMe; configuration not given here)
246 to 247	CNC(=O)C(CC1CCCCC1)NC(=O)Nc1n[nH]c(=S)s1 (stereo not given)
195 to 196	O=C1C(=O)c2ccccc2C2=C1SCC1(CCN(CC(O)Cc3ccc(Cl)cc3)CC1)O2 (stereo not given)
213 to 214	O=C(O)COc1cccc2c1CCc1sc(S(=O)(=O)C(c3cccc(F)c3)c3cccc(F)c3)nc1-2
50.2 to 52.7	O=C(CC(=O)C1CC1)c1ncc(Cl)cc1Cl
168 to 171	Cc1cc2c(cc1F)NC(=O)C2
209 to 210	CC(C)(C)OC(=O)NCc1ccc2cc(C(N)=O)[nH]c2c1
115 to 118	CCCCCC(=O)Nc1ccc(NNC(=O)N(C)c2cccc3c2C(=O)N(C)C3=O)cc1
208 to 209	Cc1ccc(NC(=O)c2cccc(N3CCOCC3)c2)cc1NC(=O)c1cccc(N(C)S(C)(=O)=O)c1
156 to 157	COC(=O)c1cc(CCCc2coc3nc(N)nc(N)c23)cs1
128 to 129	Cc1cccc(C2CCN(C(=O)CCC(=O)c3ccc4c(c3)CCN(C(=O)C(F)(F)F)CC4)CC2)c1
176 to 178	CCSc1nn2c(-c3ccc(OC)cc3)nnc2c2ccccc12
63 to 65	Cc1nc(NC(=O)Cc2ccccc2)sc1C(=O)NCc1ccccc1
119 to 121	CCOC(=O)c1ccc2cc(I)ccc2n1
60 to 62	CCOP(=O)(CCC(OC)(C(=O)c1ccccc1)c1ccccc1)OCC (stereo not given)
